Laboratory results as given in ChEMBL document CHEMBL3244122, “Symbiotic approach to drug design: antihypertensive beta-adrenergic blocking agents” (J Med Chem, 1979).

Key:
[1] = system: Canis familiaris; assay: In vivo beta-adrenergic receptor blockade in iv dosed anesthetized dog assessed as inhibition of isoproterenol-induced tachycardia; assay type: functional; conditions: Canis lupus familiaris
[2] = system: Canis familiaris; assay: In vivo beta-adrenergic receptor blockade in iv dosed anesthetized dog assessed as inhibition of isoproterenol-induced hypotension; assay type: functional; conditions: Canis lupus familiaris
[3] = system: Canis familiaris; assay: Vasodilatory activity in anesthetized dog assessed as increase in iliac blood flow at 64 mg, ia measured after 800 ug/kg, iv beta-adrenergic receptor blocker timolol administration; assay type: functional, Canis lupus familiaris, Artery
[4] = system: Canis familiaris; assay: Vasodilatory activity in anesthetized dog assessed as increase in iliac blood flow at 250 mg, ia measured after 800 ug/kg, iv beta-adrenergic receptor blocker timolol administration; assay type: functional, Canis lupus familiaris, Artery
[5] = system: Rattus norvegicus; assay: Antihypertensive activity in spontaneously hypertensive Wistar-Okamoto rat assessed as maximal fall in mean arterial pressure at 1.25 mg/kg, po; assay type: functional, Artery
[6] = system: Rattus norvegicus; assay: Antihypertensive activity in spontaneously hypertensive Wistar-Okamoto rat assessed as maximal fall in mean arterial pressure at 0.312 mg/kg, po; assay type: functional, Artery
[7] = system: Rattus norvegicus; assay: Antihypertensive activity in spontaneously hypertensive Wistar-Okamoto rat assessed as maximal fall in mean arterial pressure at 20 mg/kg, po; assay type: functional, Artery
[8] = system: Rattus norvegicus; assay: Antihypertensive activity in spontaneously hypertensive Wistar-Okamoto rat assessed as duration of action at 20 mg/kg, po; assay type: functional
[9] = system: Rattus norvegicus; assay: Antihypertensive activity in spontaneously hypertensive Wistar-Okamoto rat assessed as duration of action at 1.25 mg/kg, po; assay type: functional
[10] = system: Canis familiaris; assay: Vasodilatory activity in anesthetized dog assessed as increase in iliac blood flow […] measured after 2000 ug/kg, iv beta-adrenergic receptor blocker timolol administration; assay type: functional, Canis lupus familiaris, Artery
[11] = system: Canis familiaris; assay: Vasodilatory activity in anesthetized dog assessed as increase in iliac blood flow […] ia; assay type: functional, Canis lupus familiaris, Artery
[12] = system: Canis familiaris; assay: Vasodilatory activity in anesthetized dog assessed as increase in iliac blood flow […] measured after 800 ug/kg, iv beta-adrenergic receptor blocker timolol administration; assay type: functional, Canis lupus familiaris, Artery
[13] = system: Rattus norvegicus; assay: Antihypertensive activity in spontaneously hypertensive Wistar-Okamoto rat assessed as maximal fall in mean arterial pressure at 5 mg/kg, po; assay type: functional, Artery
[14] = system: Rattus norvegicus; assay: Antihypertensive activity in spontaneously hypertensive Wistar-Okamoto rat assessed as duration of action at 20 mg/kg, ip; assay type: functional; conditions: route intraperitoneal
[15] = system: Rattus norvegicus; assay: Antihypertensive activity in spontaneously hypertensive Wistar-Okamoto rat assessed as maximal fall in mean arterial pressure at 20 mg/kg, ip; assay type: functional, Artery; conditions: route intraperitoneal
[16] = system: Oryctolagus cuniculus; assay: Toxicity in rabbit assessed as teratogenicity measured after high drug dose administration; assay type: organism-based; conditions: in vivo
[17] = system: Rattus norvegicus; assay: Antihypertensive activity in po dosed spontaneously hypertensive Wistar-Okamoto rat assessed as maximal fall in mean arterial pressure; assay type: functional, organism-based; conditions: Artery
[18] = system: Rattus norvegicus; assay: Antihypertensive activity in spontaneously hypertensive Wistar-Okamoto rat assessed as duration of action at 5 mg/kg, po; assay type: functional
[19] = system: Canis familiaris; assay: Vasodilatory activity in anesthetized dog assessed as increase in iliac blood flow […] measured after 320 ug/kg, iv beta-adrenergic receptor blocker timolol administration; assay type: functional, Canis lupus familiaris, Artery
[20] = system: Rattus norvegicus; assay: Antihypertensive activity in spontaneously hypertensive Wistar-Okamoto rat assessed as duration of action at 0.312 mg/kg, po; assay type: functional
[21] = system: Rattus norvegicus; assay: Antihypertensive activity in spontaneously hypertensive Wistar-Okamoto rat assessed as duration of action at 5 mg/kg, ip; assay type: functional; conditions: route intraperitoneal
[22] = system: Rattus norvegicus; assay: Antihypertensive activity in spontaneously hypertensive Wistar-Okamoto rat assessed as maximal fall in mean arterial pressure at 5 mg/kg, ip; assay type: functional, Artery; conditions: route intraperitoneal

## Cc1cnc(-c2ccc(OC[C@@H](O)CNC(C)(C)C)cc2)[nH]1
[1]
  ED50: 0.03 mg/kg
[2]
  ED50: > 1 mg/kg

## CC(C)(C)NCC(O)COc1ncccc1C(F)(F)F (configuration not stated)
[1]
  ED50: < 0.001 mg/kg
[3]
  Activity: 41 mL/min
[4]
  Activity: 60 mL/min
[5]
  Activity: 28 mmHg
[6]
  Activity: 15 mmHg
[7]
  Activity: 36 mmHg
[8]
  Time: 18 h
[2]
  ED50: < 0.001 mg/kg
[9]
  Time: 4 h
[10]
  Activity: 145 mL/min
[11]
  Activity: 100 mL/min

## CC(C)(C)NCC(O)COc1ccc(C#N)cn1 (configuration not stated)
[12]
  Activity: -1 mL/min
[7]
  Activity: 15 mmHg
[10]
  Activity: 19 mL/min
[11]
  Activity: -13 mL/min

## Cc1cc(C)c(C#N)c(OCC(O)CNC(C)(C)C)n1 (configuration not stated)
[1]
  ED50: 0.0015 mg/kg
[13]
  Activity: 16 mmHg
[7]
  Activity: 21 mmHg
[8]
  Time: 8 h
[2]
  ED50: 0.0026 mg/kg
[10]
  Activity: 3 mL/min
[11]
  Activity: 33 mL/min

## CN(C)CCOc1ncccc1C#N
[14]
  Time: 1 h
[10]
  Activity: 72 mL/min
[11]
  Activity: 100 mL/min
[15]
  Activity: 49 mmHg

## CC(C)(C)NCC(O)COc1ncccc1C#N (configuration not stated)
[16]
  Activity: Toxic
[17]
  inhibition: Dose-dependent effect

## CC(C)(C)NCC(O)COc1ccc(-c2ncc(-c3ccccc3)[nH]2)cc1 (configuration not stated)
[1]
  ED50: 0.038 mg/kg
[13]
  Activity: 30 mmHg
[5]
  Activity: 20 mmHg
[7]
  Activity: 54 mmHg
[18]
  Time: 4 h
[8]
  Time: >24 h
[2]
  ED50: 0.083 mg/kg
[10]
  Activity: 42 mL/min
[11]
  Activity: 46 mL/min

## CC(C)(C)NCC(O)COc1ccc(-c2ncc[nH]2)cc1 (configuration not stated)
[14]
  Time: 1 h
[11]
  Activity: 36 mL/min
[15]
  Activity: 33 mmHg
[19]
  Activity: 31 mL/min

## CC(C)(C)NCC(O)COc1ncccc1S(C)(=O)=O (configuration not stated)
[13]
  Activity: 12 mmHg
[12]
  Activity: 8 mL/min
[7]
  Activity: 13 mmHg
[11]
  Activity: 10 mL/min

## Cc1ccc(C#N)c(OCC(O)CNC(C)(C)C)n1 (configuration not stated)
[1]
  ED50: < 0.01 mg/kg
[13]
  Activity: 5 mmHg
[2]
  ED50: < 0.01 mg/kg
[10]
  Activity: 43 mL/min
[11]
  Activity: 70 mL/min

## CC(C)(C)NCC(O)COc1ccc(-c2nc(C(F)(F)F)c[nH]2)cc1 (configuration not stated)
[1]
  ED50: 0.009 mg/kg
[13]
  Activity: 49 mmHg
[5]
  Activity: 36 mmHg
[6]
  Activity: 21 mmHg
[18]
  Time: 18 h
[2]
  ED50: 0.036 mg/kg
[9]
  Time: 18 h
[10]
  Activity: 15 mL/min
[11]
  Activity: 79 mL/min
[20]
  Time: 7 h

## CC(C)NCC(O)COc1ncccc1C#N (configuration not stated)
[1]
  ED50: 0.005 mg/kg
[14]
  Time: 8 h
[7]
  Activity: 40 mmHg
[8]
  Time: 4 h
[2]
  ED50: 0.03 mg/kg
[21]
  Time: 2 h
[22]
  Activity: 26 mmHg
[10]
  Activity: 48 mL/min
[11]
  Activity: 59 mL/min
[15]
  Activity: 59 mmHg
